The target in data set [1] is T1, Wnt5a (Oryctolagus cuniculus, UniProt Q27Q52).
T1 construct: New Zealand White rabbits receive a topical administration; from tissue; host or cells: eye of living New Zealand White rabbits
T1 sequence (Q27Q52 62-380): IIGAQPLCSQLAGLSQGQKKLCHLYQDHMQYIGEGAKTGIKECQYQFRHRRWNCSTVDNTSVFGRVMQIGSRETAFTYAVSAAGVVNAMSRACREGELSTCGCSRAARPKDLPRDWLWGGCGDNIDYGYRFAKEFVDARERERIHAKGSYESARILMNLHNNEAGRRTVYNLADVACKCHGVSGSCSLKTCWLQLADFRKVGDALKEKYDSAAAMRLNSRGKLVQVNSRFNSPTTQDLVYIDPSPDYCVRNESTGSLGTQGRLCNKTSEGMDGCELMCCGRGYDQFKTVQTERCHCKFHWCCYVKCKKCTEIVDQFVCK
Kind of data set: Rabbit model of pathogenic IOP, inhibitor delivered by eye drops. The format is in vivo.
From the text: To assess the effect of siRNA delivered by eye drops on IOP, we developed an additional protocol based on the methods of Martinez et al. (Mol Ther. 2014 January; 22(1):81-91), wherein New Zealand White rabbits receive a topical administration of either 20 nmol/day of siRNA or phosphate-buffered saline (PBS) over a period of 4 consecutive days.

The next data set concerns WNT-5A. Conditions: Shinonaga et al. 2009; cited from earlier work.
Data set [2] addresses T2, Wnt5a (Mus musculus, UniProt P22725).
T2 construct: from tissue; host or cells: eye of living mice (Schlemm's canal / anterior chamber)
T2 sequence (P22725 62-380): T1 sequence (Q27Q52 62-380)
As to the kind of experiment: Mouse model of pathogenic IOP, inhibitor delivered by eye drops. It is filed as in vivo.
Method: In one protocol subconjuctival injection of siRNA is performed as described by Yuen et al. (2014, Invest Ophthalmol Vis Sci. 2014; 55:3320-3327). Mice are randomly selected to receive subconjunctival injection of 5 uL (0.2 1g/uL) siRNA or control twice a week for 2 weeks. In a second protocol intracameral injection of siRNA is performed as described by Tam et al. (2017, Scientific Reports 7, 40717). Mice are anaesthetized by intra-peritoneal injection, and pupils are dilated. A pulled blunt-ended micro-glass needle is first used to puncture the cornea to withdraw aqueous humour Immediately after puncture, a pulled blunt-ended micro-glass needle attached to a 10 μl syringe is inserted through the puncture, and 1.5 μl of PBS containing 1 μg siRNA is administered into the anterior chamber. Contralateral eyes receive an identical injection of 1.5 μl containing the same concentration of scrambled siRNA.

The conditions of data set [3]: Shinonaga et al. 2009; cited from earlier work.

Consider 1 substance from patent publication US20240124538A1, “Modulation of Wnt5a to Treat Glaucoma” (The Regents of the University of California, priority 2017, published 2024).

In the case of 6,7-dihydro-10alpha-hydroxy radicicol, the “therapy of pathogenic IOP” value on Wnt5a [1] and at Wnt5a [2] was “effective therapies for pathogenic IOP” each time. The WNT-5A expression inhibition entry with WNT-5A is given as “potent WNT-5A expression inhibitor”. In addition, the toxicity entry in data set [3] was “relatively low toxicity”.
